The text below walks through data of PMC11784145, “Efficacy and in vitro pharmacological assessment of novel N-hydroxypyridinediones as hepatitis B virus ribonuclease H inhibitors” (Antimicrobial Agents and Chemotherapy, 2024).

“And” between values parts separate entries of the source, which are not always exact repeats. Equal entries are not always repeated. Where two headings read alike, the source gives them in different places. Bounds are passed on as bounds.

The target of data set [1] is T1, human ribonuclease H1 (huRNase H1) (Homo sapiens, UniProt O60930).
T1 construct: made in house; host or cells: Escherichia coli
T1 sequence (O60930 1-286): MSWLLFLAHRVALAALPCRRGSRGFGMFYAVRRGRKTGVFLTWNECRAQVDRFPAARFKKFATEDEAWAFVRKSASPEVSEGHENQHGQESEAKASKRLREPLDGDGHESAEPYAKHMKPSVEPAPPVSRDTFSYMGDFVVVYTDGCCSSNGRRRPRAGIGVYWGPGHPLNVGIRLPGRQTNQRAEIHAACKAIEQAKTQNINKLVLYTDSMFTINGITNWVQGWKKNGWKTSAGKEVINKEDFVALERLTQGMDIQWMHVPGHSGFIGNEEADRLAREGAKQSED
In words: Human RNase H1 inhibition, fluorescent biochemical assay.

The nature of data set [2]: Microsome stability. Type of data set: in vitro ADME, human. The conditions noted are these: human liver microsomes; for Clearance (intrinsic clearance, Clint) / Half-life: 1 µM compound, 30 min, NADPH. A general note: Liver microsomes are vesicles of endoplasmic reticulum, rich in cytochrome P450 enzymes.
Data set [3] concerns plasma proteins. In words: Plasma protein binding, rapid equilibrium dialysis. Type of data set: in vitro ADME, bovine. The conditions noted are these: 10 µM compound, DMEM-F12 with 10% FBS (0.25 mg/mL BSA), 4 h, 37°C. Here is the method:
Plasma protein binding was performed using the Pierce rapid equilibrium dialysis device (Thermo Fisher) per the manufacturer’s instructions, as described ([27]). Briefly, the sample wells contained DMEM-F12 supplemented with 10% FBS spiked with 10 µM compound, and the buffer wells contained phosphate-buffered saline (PBS). The plate was incubated for 4 h at 37°C with shaking, after which 50 µL was retrieved from the buffer and sample wells and added to ice-cold acetonitrile and the internal standard described above. Samples were matrix-matched with PBS supplemented with 10% FBS or PBS alone, respectively, and centrifuged at 4,000 × g for 5 min to pellet plasma proteins. The supernatants were analyzed by LCMS/MS and percent compound bound was determined, as described previously ([27]).
A general note: Equilibrium dialysis compares concentrations on both sides of a semipermeable membrane.

Data set [4] concerns HBV replication (HBV plus-polarity DNA strand). In words: HBV replication inhibition, strand preferential qPCR in hepDES19 cells. Type of data set: cell-based, hepatitis B virus. The note with it: for EC50: 72 h exposure. Here is the method:
HBV replication inhibition was measured in hepDES19 cells following 72 h compound exposure without compound replenishment. EC50 values were determined by HBV plus-polarity strand suppression using a strand preferential qPCR assay, as described previously ([28]). Three or more replicate values were obtained on different days.
(In general: Quantitative PCR measures a nucleic acid by following its amplification.)

A short description of data set [5]: Parallel artificial membrane permeability assay (PAMPA). Type of data set: in vitro ADME. On the procedure: Compound Papp values were determined by normalizing the experimental compound absorbance to the compounds’ absorbances at equilibrium, membrane porosity, buffer volume, and time (s). Two or more replicate assays were obtained on separate days for each pH.

Data set [6] concerns the target T2, CYP2D6 (Homo sapiens, UniProt P10635).
T2 construct: purchased Thermo Fisher Vivid 2D6 EOMCC Blue
Put plainly: Cytochrome P450 inhibition, Vivid 2D6 EOMCC Blue kit. Type of data set: in vitro ADME. The note with it: for IC50: dose-response 50 µM to 3 nM, mean ± SD. Here is the method: Compound inhibition of Cytochrome P (CYP) 3A4, 2C9, and 2D6 was determined using Vivid CYP450 screening kits (Thermo Fisher) according to the manufacturer’s instructions, as described previously ([27]). The kits employed were: Vivid 3A4 DBOMF Green, 2C9 BOMF Green, and 2D6 EOMCC Blue. Reactions were initiated by addition of the fluorophore-conjugated substrates with Vivid NADP^+ and were conducted at 37°C using either a Biotek Synergy HTX multi-mode plate reader with 485/20 nm excitation and 520/20 nm emission filters (green-fluorescent substrate), or a Tecan Spark plate reader with monochromator settings at 415/20 nm excitation and 460/20 nm emission (blue-fluorescent substrate) defined by the Center Wavelength/band-pass values. Substrate cleavage was detected every 60 s.
Compounds were initially screened against each enzyme at 10 µM and maximum rates of fluorescence in RFU were calculated using the Biotek Gen5 v3.11 software. Percent inhibition of experimental compound reactions was normalized to the rate to DMSO vehicle reactions. Positive controls used were: CYP3A4—ketoconazole (Sigma Aldrich), CYP2C9—sulfaphenazole (Cayman Chemical), and CYP2D6—quinidine (Fisher Scientific). Dose-response curves were generated for compounds that inhibited an enzyme by ≥50% using titrated concentrations of compound (50 µM to 3 nM) or 1% DMSO. IC50 values were determined using the four-parameter log[inhibitor] versus response algorithm in GraphPad Prism. Qualitative screens and dose-response curves were each performed in triplicate on different days.

The mark [7] stands for this setting: HBV plus-polarity strand suppression, highest concentration tested 100 µM, mean ± SD, read-out: HepDES19 EC50.
The mark [8] stands for this setting: read-out: EC50 against HBV replication.

T2 sequence (P10635 whole entry): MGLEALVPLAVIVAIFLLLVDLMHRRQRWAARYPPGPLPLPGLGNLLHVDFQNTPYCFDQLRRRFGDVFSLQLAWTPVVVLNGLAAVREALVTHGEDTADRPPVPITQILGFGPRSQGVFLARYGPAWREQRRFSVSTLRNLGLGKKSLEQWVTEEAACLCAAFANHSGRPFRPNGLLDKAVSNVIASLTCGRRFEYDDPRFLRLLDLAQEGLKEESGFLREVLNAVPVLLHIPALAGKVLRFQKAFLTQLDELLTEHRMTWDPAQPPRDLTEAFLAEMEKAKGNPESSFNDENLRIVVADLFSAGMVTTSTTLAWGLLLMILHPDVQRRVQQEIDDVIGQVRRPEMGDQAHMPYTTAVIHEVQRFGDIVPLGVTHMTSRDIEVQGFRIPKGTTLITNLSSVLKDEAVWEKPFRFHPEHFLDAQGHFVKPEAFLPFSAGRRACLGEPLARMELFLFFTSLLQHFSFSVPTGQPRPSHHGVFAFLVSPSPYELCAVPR

The EC50 is the concentration giving half of the maximal effect. By IC50 is commonly meant the concentration at which inhibition is half-maximal. Consider `CC(=NOCc1ccc(F)c(F)c1)c1c(C)cc(=O)n(O)c1O` [Compound 1617], for which the “Selectivity of HBV replication inhibition over huRNase H1 (huRNase H1 IC50 versus HBV EC50)” value in data set [1] was “at least 10 fold”. Also, in data set [2], the “Intrinsic clearance (Clint) rate category” value was “medium (medium Clint rates (≥ 8.6 and ≤47))”; the “Clearance (intrinsic clearance, Clint)” value was determined as 45.7 µL/min/mg; the Half-life turned out to be 23.0 min. The Percent bound in data set [3] is reported as 100 ± 0.019%. The “HepDES19 SI (CC50/EC50)” value in data set [4] came to 157. Moreover, the concentration giving a half-maximal response (EC50) in data set [4] (setting [7]) is 0.35 ± 0.193 µM. For the same compound, the EC50 in data set [4] (setting [8]) was below 0.4 µM. Besides, in data set [5] (FeSSIF pH 5), the “Avg Papp (PAMPA)” value was found to be 15.1 ×10⁻⁶ cm/s and the “Interpretation (PAMPA Papp)” value was “H (H: Papp > 1*10-6)”. Besides, the “Papp 1 (PAMPA)” value in data set [5] (FeSSIF pH 5, replicate 1) stood at 4.04 ×10⁻⁶ cm/s. The “Papp 2 (PAMPA)” value in data set [5] (FeSSIF pH 5, replicate 2) came to 26.1 ×10⁻⁶ cm/s. In addition, in data set [5] (pH 7.4), the “Avg Papp (PAMPA)” value came out at 0.95 ×10⁻⁶ cm/s and the “PAMPA apparent permeability (Papp) category” value was “low (low (<1 × 10^−6 cm/s))”. Moreover, the “Papp 1 (PAMPA)” value in data set [5] (pH 7.4, replicate 1) stood at 1.46 ×10⁻⁶ cm/s. Moreover, the “Papp 2 (PAMPA)” value in data set [5] (pH 7.4, replicate 2) stood at 0.478 ×10⁻⁶ cm/s. Further, the “Papp 3 (PAMPA)” value in data set [5] (pH 7.4, replicate 3) came out at 0.911 ×10⁻⁶ cm/s. Moreover, in data set [6], the IC50 came out at 4.46 µM.
As to `CC(=NOCc1cccc(F)c1)c1c(C)cc(=O)n(O)c1O` [Compound 1618], the “Selectivity of HBV replication inhibition over huRNase H1 (huRNase H1 IC50 versus HBV EC50)” value in data set [1] was “at least 10 fold”. For the same compound, in data set [2], the “Intrinsic clearance (Clint) rate category” value is on record as “low (low Clint (µL/min/mg protein) rates (<8.6))”; the “Clearance (intrinsic clearance, Clint)” value came out at 5.71 µL/min/mg; the Half-life was above 30 min. Moreover, the Percent bound in data set [3] is 93.5 ± 0.129%. For the same compound, in data set [4], the “HepDES19 SI (CC50/EC50)” value is reported as 1,071. The 50% effective concentration (EC50) in data set [4] (setting [7]) turned out to be 0.061 ± 0.01 µM. Further, the EC50 in data set [4] (setting [8]) was below 0.4 µM. In addition, in data set [5] (FeSSIF pH 5), the “Avg Papp (PAMPA)” value is 16.4 ×10⁻⁶ cm/s and the “Interpretation (PAMPA Papp)” value is recorded as “H (H: Papp > 1*10-6)”. Further, the “Papp 1 (PAMPA)” value in data set [5] (FeSSIF pH 5, replicate 1) was determined as 15.4 ×10⁻⁶ cm/s. The “Papp 2 (PAMPA)” value in data set [5] (FeSSIF pH 5, replicate 2) stood at 17.4 ×10⁻⁶ cm/s. Further, in data set [5] (pH 7.4), the “Avg Papp (PAMPA)” value came out at 0.489 ×10⁻⁶ cm/s and the “PAMPA apparent permeability (Papp) category” value is “low (low (<1 × 10^−6 cm/s))”. Besides, in data set [5] (pH 7.4, replicate 1), the “Papp 1 (PAMPA)” value worked out at 0.395 ×10⁻⁶ cm/s. Also, the “Papp 2 (PAMPA)” value in data set [5] (pH 7.4, replicate 2) was 0.582 ×10⁻⁶ cm/s. In addition, in data set [6], the “Selectivity index for CYP (CYP2D6) inhibition versus HBV EC50” value was > 150 and 166; the IC50 is 10.2 ± 4.1 µM.
